Tests used:
[1] = not given; remark: listed apart in the source
[2] = not given; remark: listed apart in the source
[3] = method code SF-AS, from Zsuzsa, H.; Nora, K. (1979). Study on the partition coefficient of acetanilides. Nehezvegyp. Kut. Intez. Kozl., 8, 139-146.
[4] = method code SF-RC, from DOI: 10.1021/es00096a007
[5] = method code SF-AS, from DOI: 10.1021/jm00099a010, PMID: 1433194; conditions: pH 7.4
[6] = method code SF-HPLC, from PMID: 11745753; conditions: pH 11.0
[7] = not given; remark: listed apart in the source
[8] = not given; remark: listed apart in the source
[9] = method code SF-AS, from DOI: 10.1016/0378-5173(92)90099-n
[10] = method code SF-AS, from DOI: 10.1248/cpb.39.458, PMID: 1829027; conditions: pH 7.0
[11] = method code SF-AS, from PMID: 10944786; conditions: pH 7.0
[12] = not given; remark: listed apart in the source
[13] = not given; remark: listed apart in the source
[14] = method code SF-RC, from DOI: 10.1002/jlcr.1932; conditions: pH 7.4
[15] = not given; remark: listed apart in the source
[16] = method code SF, from DOI: 10.1007/978-94-011-1472-1_81
[17] = not given; remark: listed apart in the source
[18] = not given; remark: listed apart in the source
[19] = not given; remark: listed apart in the source
[20] = method code SF-LC/MS, from DOI: 10.1021/jm4008714, PMID: 23919803; conditions: pH 7.4
[21] = not given; remark: listed apart in the source
[22] = not given; remark: listed apart in the source
[23] = method code SF-GR, from DOI: 10.1021/jm00199a032, PMID: 619145
[24] = method code SF-RC, from DOI: 10.1016/j.bmc.2005.04.014, PMID: 15911305; conditions: pH 7.4
[25] = not given; remark: listed apart in the source
[26] = method code SF-RC, from PMID: 14530489; conditions: pH 7.4
[27] = from Ammermann, E., Loecher, F., Lorenz, G., Janssen, B., Karbach, S., & Meyer, N. (1990). BAS 480 F - a new broad spectrum fungicide. In Brighton Crop Protection Conference, Pests and Diseases - 1990 …; conditions: pH 7.0
[28] = not given; remark: listed apart in the source
[29] = not given; remark: listed apart in the source
[30] = not given; remark: listed apart in the source
[31] = method code SF-AS, from PMID: 872227; conditions: pH 7.2
[32] = method code SF-RC, from Godoy, N.; Valle, L.; Mena, P.; Gil, M. (1989). Synthesis, labeling and biodistribution of 99mTc-labelled bromoimino diacetic acids. Nucleotecnica, 9(17)25-32.
[33] = not given; remark: listed apart in the source
[34] = not given; remark: listed apart in the source
[35] = method code SF-AS, from DOI: 10.1021/jm00170a024, PMID: 2374146
[36] = method code SF-RC, from DOI: 10.1016/j.nucmedbio.2012.01.004, PMID: 22336372; conditions: pH 7.4
[37] = method code SF-RC, from DOI: 10.1016/s0969-8051(99)00046-3, PMID: 10628564; conditions: pH 7.4
[38] = method code SF-AS, from DOI: 10.1016/s0928-0987(01)00170-1, PMID: 11500262; conditions: pH 12.5
[39] = method code SF-AS, from DOI: 10.1213/00000539-199008000-00008, PMID: 2375517
[40] = from Kyomura, N., Fukuchi, T., Kohyama, Y., & Motojima, S. (1990). Biological characteristics of new acaricide MK-239. In Brighton Crop Protection Conference, Pests and Diseases - 1990 (Vol. 1, pp. …
[41] = not given; remark: listed apart in the source
[42] = not given; remark: listed apart in the source
[43] = method code SF, from DOI: 10.1248/cpb.35.4144, PMID: 3435941; conditions: pH 6.8
[44] = method code SF-RC, from DOI: 10.1021/jm070025+, PMID: 17411026; conditions: pH 7.4
[45] = method code SF-GLC, from DOI: 10.1556/jpc.23.2010.3.6
[46] = method code SF-HPLC, from DOI: 10.1002/jps.2600840622; conditions: pH 7.0

CCCN(CCC)P(=O)(OC(C)CC)c1ccccc1 (configuration not stated)
logP: 4.13

CC12CCC3c4ccc(O)cc4CCC3C1CC(F)C2O (configuration not stated)
logP [1]: 2.98

c1ccc(C2=NOC3COC(c4ccccc4)OCC23)cc1 (configuration not stated)
logP [2]: 3.42

CC(Cl)C(=O)N(CC(=O)Nc1ccccc1)c1ccccc1 (configuration not stated)
logP [3]: 3.02

Nc1cc2c3ccccc3ccc2c2ccccc12
logP [4]: 4.98

CN1CCN(Cc2ccc(C(=O)c3csc(S(N)(=O)=O)c3)cc2)CC1
logD [5]: 0.37

CCCCN1CCCCC1C(=O)Nc1c(C)cccc1C (configuration not stated)
logD [6]: 3.35

CC(C)(Oc1ccccc1)C(=O)N[C@@H]1C(=O)N2[C@@H]1SC(C)(C)[C@@H]2C(=O)O
logP [7]: 2.76

CCCCCCCCCCCCCCOC(=O)C(C)O (configuration not stated)
logP [8]: 6.08

CCn1cc(C(=O)O)c(=O)c2cc(F)c(N3CCN(C)CC3)c(F)c21
logP [9]: 0.3

CCCC(=O)OC[C@H]1O[C@@H](n2cc(F)c(=O)[nH]c2=O)C[C@@H]1OC(=O)CCC
logD [10]: 1.9

CCCCOc1cccc(NC(=O)OCN2CCCCC2)c1
logD [11]: 2.97

CC[C@@H](c1ccc(O)cc1)[C@H](CCF)c1ccc(O)cc1
logP [12]: 4.03

CN1CCN2c3ccccc3Cc3ccccc3C2C1 (configuration not stated)
logP [13]: 4

O=C(OCC1=CC(=O)c2ccccc2C1=O)c1ccc(F)cc1
logD [14]: 2.7

COc1ccc2c3c1O[C@H]1[C@@H](O)C=C[C@H]4[C@@H](C2)N(C)CC[C@@]341
logP [15]: 1.22

Cc1cccc2c1Sc1ccccc1C2NC(=O)CN(C)C (configuration not stated)
logP [16]: 3.24

Cc1ccccc1C(OCCN(C)C)c1ccccc1 (configuration not stated)
logP [17]: 3.77

c1ccc2c(c1)Cc1c-2ccc2ccccc12
logP [18]: 5.32

O=C1/C(=C/c2cccc(Cl)c2)CCCc2ccccc21
logP [19]: 5.22

Cn1c(=O)nc(-c2ccccc2)c2oc3ccccc3c21
logD [20]: 2.8

COC1=CC(=NO)CC(C)C12Oc1c(Cl)c(OC)cc(OC)c1C2=O (configuration not stated)
logP [21]: 2.31

COc1c(OC)c(OC(C)=O)c2cc(NC(C)=O)ccc2c1OC(C)=O
logP [22]: 2

S=P(NN=Cc1ccccn1)(NN=Cc1ccccn1)Oc1ccccc1
logP [23]: 1.62

Nc1nc(OCc2cccc(I)c2)c2ncn(C3CC(O)C(CO)O3)c2n1 (configuration not stated)
logD [24]: 1.4

CC1C=COC1C(=O)Nc1cccc(-c2nc3ncccc3o2)c1 (configuration not stated)
logP [25]: 2.9

CS(=O)(=O)c1ccc(-c2ccsc2-c2ccc(F)cc2)cc1
logD [26]: 3.72

Fc1ccc([C@]2(Cn3cncn3)O[C@H]2c2ccccc2Cl)cc1 (stereo in doubt)
logD [27]: 3.44

O=C(O)c1cc(/N=N/c2ccc(S(=O)(=O)Nc3ccccn3)cc2)ccc1O
logP [28]: -0.13

CC(Oc1ccccc1)C(=O)N[C@@H]1C(=O)N2[C@@H]1SC(C)(C)[C@@H]2C(=O)O (some centres not stated)
logP [29]: 2.19

COC(=O)C1C2CC3CCC1N3CC2=Cc1ccc(I)c(Cl)c1 (configuration not stated)
logP [30]: 4.25

CCCOc1ccc(NC(=O)OCCN2CCOCC2)c(C)c1
logD [31]: 2.21

CC(C)c1ccc(Br)c(C(C)C)c1NC(=O)CN(CC(=O)O)CC(=O)O
logP [32]: 0.2

Cc1cc2c(s1)Nc1ccccc1N=C2N1CCN(C)CC1
logP [33]: 3

Clc1ccc(COC(Cn2ccnc2)c2ccc(Cl)cc2Cl)c(Cl)c1 (configuration not stated)
logP [34]: 5.81

CCOP(=O)(Cc1ccc(-c2nc3ccccc3s2)cc1)OCC
logP [35]: 3.5

C#CCN(CCF)c1ccc(S(=O)c2ccc([N+](=O)[O-])cc2)cc1 (configuration not stated)
logD [36]: 2.6

CN1CCN(C(=O)OC2c3nccnc3C(=O)N2c2ccc(I)cn2)CC1 (configuration not stated)
logD [37]: 1.6

CN(C)CCC(c1ccccc1)c1ccccc1
logD [38]: 5.4

CCCN1CCCC[C@H]1C(=O)Nc1c(C)cccc1C
logP [39]: 2.89

CCc1nn(C)c(C(=O)NCc2ccc(C(C)(C)C)cc2)c1Cl
logP [40]: 4.61

CN1CC[C@]23c4c5ccc(O)c4O[C@H]2C(=O)CC[C@@]3(O)[C@H]1C5
logP [41]: 0.67

CCCCC(CC)COC(=O)c1ccc(N(C)C)cc1 (configuration not stated)
logP [42]: 6.6

COC(=O)C1=C(C)NC(C)=C(P2(=O)OCCCO2)C1c1ccccc1[N+](=O)[O-] (configuration not stated)
logD [43]: 1.3

CN(C)c1ccc(/C=C/c2cnc(OCCO)c(I)c2)cc1
logD [44]: 2.64

CCCCCCCCCCCCCCCCO
logP [45]: 7

CCN1CCN(c2cc3c(cc2F)c(=O)c(C(=O)O)cn3CC)CC1
logD [46]: 0.37

— the SangsterLogP compilation
